For data set [1], the system named is mice. The data set is described as follows: hEPO expression in mice after intravenous administration. The data set is classed as in vivo. The method, then: Sample formulations of nanoparticle compositions including different lipids are generally first evaluated according to Luc expression in vivo. The activity of several such compositions was further evaluated using an mRNA encoding hEPO. Nanoparticle compositions including Compounds 6, 18, 25, 30, 108-112, 60, and 122, or MC3 were prepared according to Example 2.
(§1) The expression of hEPO and cytokine induction in mice intravenously administered a nanoparticle composition at a dose of 0.5 mpk were measured at 3, 6, and 24 hours. […] The expression of hEPO in mice intramuscularly administered a nanoparticle composition from Table 1B at a dose of 0.01 mpk were measured at 3, 6, and 24 hours. […] (see also FIG. 9.)
Table 12 compares the nanoparticle compositions including compounds according to Formula (I), (IA), (II), (IIa), (IIb), (IIc), (IId) or (IIe) to the compositions including MC3 on the basis of expression and flux levels. […] Thus, these lipids may be useful in nanoparticle composition therapeutics. […]

Data set [2] can be described thus: Particle size and polydispersity index of nanoparticle compositions (Zetasizer Nano ZS). The data set is classed as physicochemical. Conditions: for PDI: nanoparticle composition 50:10:38.5:1.5 mol % (Table 1A). An excerpt: Nanoparticle compositions may be characterized by a variety of methods. For example, microscopy (e.g., transmission electron microscopy or scanning electron microscopy) may be used to examine the morphology and size distribution of a nanoparticle composition. Dynamic light scattering or potentiometry (e.g., potentiometric titrations) may be used to measure zeta potentials. Dynamic light scattering may also be utilized to determine particle sizes. Instruments such as the Zetasizer Nano ZS (Malvern Instruments Ltd, Malvern, Worcestershire, UK) may also be used to measure multiple characteristics of a nanoparticle composition, such as particle size, polydispersity index, and zeta potential.
A Zetasizer Nano ZS (Malvern Instruments Ltd, Malvern, Worcestershire, UK) can be used to determine the particle size, the polydispersity index (PDI) and the zeta potential of the nanoparticle compositions in 1×PBS in determining particle size and 15 mM PBS in determining zeta potential.
(§2) Initial studies were performed to compare the delivery efficiency of nanoparticle compositions including various compounds according to Formula (I), (IA), (II), (IIa), (IIb), (IIc), (IId) or (IIe). The cationic lipid MC3 is a current standard in the art. Accordingly, the standard MC3 formulation including about 50 mol % MC3, about 10 mol % DSPC, about 38.5 mol % cholesterol, and about 1.5 mol % PEG-DMG was used as a basis for this study. Nanoparticle compositions including DSPC as a phospholipid, cholesterol as a structural lipid, PEG-DMG as a PEG lipid, an RNA, and a compound according to Formula (I), (IA), (II), (IIa), (IIb), (IIc), (IId) or (IIe) selected from Compounds 1-159, 168-170, and 173-175 were prepared according to or via methods similar to those described in Examples 1 and 2. The ratios of the lipids were 50:10:38.5:1.5 mol % for the lipid according to Formula (I), (IA), (II), (IIa), (IIb), (IIc), (IId) or (IIe):DSPC:cholesterol:PEG-DMG. The RNA used was an mRNA encoding G5 luciferase (Luc) or G5 hEPO. Tables 1A-1B summarize the content and characteristics of the formulations. […]

Data set [3] concerns mice. The data set is described as follows: Cytokine induction (IL-6, IP-10) in mice after intravenous administration. The data set is classed as in vivo. Also on record: IL-6 / IP-10: unit not given here. Conditions: 0.5 mpk; for IL-6 / IP-10: 6 hours.
Description: The introduction of foreign material into a mammalian body induces an innate immune response that promotes cytokine production. Such immune responses to, for example, nanoparticle compositions including therapeutic and/or prophylactics, are undesirable. The induction of certain cytokines is thus measured to evaluate the […] of nanoparticle compositions. The concentrations of various cytokines in mice upon intravenous administration of nanoparticle compositions presented in Table 1A at a dosage of 0.5 mpk was measured at 6 hours. The standard MC3 formulation and a PBS control were also tested. As is evident in Table 7, IL-6 induction was highest for compositions including Compounds 1, 3, 9, 19, and 26, while IP-10 induction was highest for compositions including Compounds 3, 4, 7, 20, and 26. IL-6 induction was lowest for compositions including Compounds 4, 11, 12, and 28. IP-10 induction was lowest for compositions including Compounds 10, 11, 12, 13, 15, 17, and 18.
as §1

The nature of data set [4]: Encapsulation of RNA by the nanoparticle composition (QUANT-IT RIBOGREEN RNA assay). The data set is classed as physicochemical.
Description: The efficiency of encapsulation of a therapeutic and/or prophylactic describes the amount of therapeutic and/or prophylactic that is encapsulated or otherwise associated with a nanoparticle composition after preparation, relative to the initial amount provided. The encapsulation efficiency is desirably high (e.g., close to 100%). The encapsulation efficiency may be measured, for example, by comparing the amount of therapeutic and/or prophylactic in a solution containing the nanoparticle composition before and after breaking up the nanoparticle composition with one or more organic solvents or detergents. Fluorescence may be used to measure the amount of free therapeutic and/or prophylactic (e.g., RNA) in a solution. For the nanoparticle compositions described herein, the encapsulation efficiency of a therapeutic and/or prophylactic may be at least 50%, for example 50%, 55%, 60%, 65%, 70%, 75%, 80%, 85%, 90%, 91%, 92%, 93%, 94%, 95%, 96%, 97%, 98%, 99%, or 100%. In some embodiments, the encapsulation efficiency may be at least 80%. In certain embodiments, the encapsulation efficiency may be at least 90%.
For nanoparticle compositions including an RNA, a QUANT-IT™ RIBOGREEN® RNA assay (Invitrogen Corporation Carlsbad, CA) can be used to evaluate the encapsulation of an RNA by the nanoparticle composition. The samples are diluted to a concentration of approximately […] in a TE buffer solution (10 mM Tris-HCl, 1 mM EDTA, pH 7.5). 50 μL of the diluted samples are transferred to a polystyrene 96 well plate and either 50 μL of TE buffer or 50 μL of a 2% Triton X-100 solution is added to the wells. The plate is incubated at a temperature of 37° C. for 15 minutes. The RIBOGREEN® reagent is diluted 1:100 in TE buffer, and 100 μL of this solution is added to each well. The fluorescence intensity can be measured using a fluorescence plate reader (Wallac Victor 1420 Multilablel Counter; Perkin Elmer, Waltham, MA) at an excitation wavelength of, for example, about 480 nm and an emission wavelength of, for example, about 520 nm. The fluorescence values of the reagent blank are subtracted from that of each of the samples and the percentage of free RNA is determined by dividing the fluorescence intensity of the intact sample (without addition of Triton X-100) by the fluorescence value of the disrupted sample (caused by the addition of Triton X-100).
as §2

The subject of data set [5] is mice. The data set is described as follows: Luc expression (total flux) after intramuscular administration. The data set is classed as in vivo. Particulars: i.m., Luc, 6 h.
Data set [6] relates to mice. Briefly: Luc expression (bioluminescence, total flux) after intravenous administration to mice. The data set is classed as in vivo. Particulars: Luc total flux (Table 3D). The method, then:
In order to monitor how effectively various nanoparticle compositions deliver therapeutic and/or prophylactics to targeted cells, different nanoparticle compositions including a particular therapeutic and/or prophylactic (for example, a modified or naturally occurring RNA such as an mRNA) are prepared and administered to rodent populations. Mice are intravenously, intramuscularly, intraarterially, or intratumorally administered a single dose including a nanoparticle composition with a formulation such as those provided in Example 3. In some instances, mice may be made to inhale doses. Dose sizes may range from 0.001 mg/kg to 10 mg/kg, where 10 mg/kg describes a dose including 10 mg of a therapeutic and/or prophylactic in a nanoparticle composition for each 1 kg of body mass of the mouse. A control composition including PBS may also be employed.
Upon administration of nanoparticle compositions to mice, dose delivery profiles, dose responses, and toxicity of particular formulations and doses thereof can be measured by enzyme-linked immunosorbent assays (ELISA), bioluminescent imaging, or other methods. For nanoparticle compositions including mRNA, time courses of protein expression can also be evaluated. Samples collected from the rodents for evaluation may include blood, sera, and tissue (for example, muscle tissue from the site of an intramuscular injection and internal tissue); sample collection may involve sacrifice of the animals.
The efficacy of the nanoparticle compositions presented in Table 1A was evaluated with a bioluminescence study. Formulations were administered intravenously to mice (n=6) at a dosage of 0.5 mg/kg (mpk) and bioluminescence measured at 3, 6, and 24 hour time points. The standard MC3 formulation and, in some instances, a control (e.g., a PBS control) were evaluated for comparison. […] In general, flux decreased as time progressed to less than 10% of the initial flux.
The total flux (measured by area under the curve, AUC) induced by administration of a formulation including a given lipid relative to that induced by administration of a formulation including MC3 was also measured for several lipids.
The tolerability and efficacy of nanoparticle compositions to non-human primates was also investigated using sample formulations including Compounds 18, 25, 26, and 48 and MC3 to determine if these compounds are differentiated in terms of protein expression. The formulations were prepared according to the standard MC3 formulation described above and included an hEPO mRNA. Table 30 includes details of the compositions tested, while Table 31 summarizes the relative expression of Luc and hEPO mRNA in mice and rats. Expression was measured 6 hours after administration.

Where [7] appears, read: nanoparticle composition lipid:DSPC:cholesterol:PEG-DMG 50:10:38.5:1.5 mol %, mRNA encoding Luc or hEPO (Table 1A).
[8] abbreviates: nanoparticle composition 50:10:38.5:1.5 mol % (Table 1A).

The structures appear in SMILES notation.

With `CCCCC/C=C\C/C=C\CCCCCCCCN(CCO)CCCCCCCC(=O)OC(CCCCCCCC)CCCCCCCC` [Compound 6, Heptadecan-9-yl 8-((2-hydroxyethyl)((9Z,12Z)-octadeca-9,12-dien-1-yl)amino)octanoate], the “hEPO concentrations compared with MC3 formulations at each time point” value in the data set on mice [1] (0.5 mpk, 3, 6 and 24 hours) is “higher hEPO concentrations than MC3 formulations”. Moreover, the “hEPO expression (pg/ml) 3h” value with mice [1] (0.5 mpk, 3 h) was found to be 2.31e+06 pg/mL. Besides, in the data set on mice [1] (0.5 mpk, 6 h), the “hEPO expression (pg/ml) 6 h” value came out at 3.17e+06 pg/mL. The “hEPO expression (pg/ml) 24 h” value in the data set on mice [1] (0.5 mpk, 24 h) is 1.11e+06 pg/mL. Further, the “Size (nm)” value in data set [2] (hEPO mRNA, lipid:DSPC:Chol:PEG-DMG (50:10:38.5:1.5) (Table 10)) was determined as 70.5 nm. In the data set with mice [3], this molecule yielded an IL-6 of 136.18 and an IP-10 of 316.01. For the same molecule, in the data set with mice [3] (hEPO mRNA, 6 h), the “Cytokine expression (pg/ml) IL-6 (6 h)” value stood at 10.15 pg/mL and the “Cytokine expression (pg/ml) IP-10 (6 h)” value is 116.66 pg/mL. Besides, the “EE (%)” value in data set [4] (hEPO mRNA, (50:10:38.5:1.5) (Table 10)) is 97.84%.

`CCCCCCCCC(CCCCCCCC)OC(=O)CCCCCCCN(CCO)CCCC(=O)OC(CCCCC)CCCCCCCC` (stereo not drawn) [Compound 71, Heptadecan-9-yl 8-((2-hydroxyethyl)(4-oxo-4-(tetradecan-6-yloxy)butyl)amino)octanoate] returned a PDI in data set [2] of 0.11. Besides, in data set [2] (setting [7]), the “Size (nm)” value turned out to be 60.1 nm. The “EE (%)” value in data set [4] (setting [8]) was 96.1%.

On to `CCCCCCCCCOC(=O)CCCCCCCN(CCCCCCCC(=O)OC(CCCCCCCC)CCCCCCCC)CCCNS(C)(=O)=O` [Compound 109, Heptadecan-9-yl 8-((3-(methylsulfonamido)propyl)(8-(nonyloxy)-8-oxooctyl)amino)octanoate], for which the “i.m. Lipid/MC3 0.01 mpk, Luc, 6h” value in the data set with mice [5] stood at 3.6.

Molecule `CCCCCCCCCOC(=O)CCCCCCCN(CCCCCCCC(=O)OC(CCCCCCCC)CCCCCCCC)CCCNC(=S)N(C)C` [Compound 111, Heptadecan-9-yl 8-((3-(3,3-dimethylthioureido)propyl)(8-(nonyloxy)-8-oxooctyl)amino)octanoate] showed a PDI in data set [2] of 0.14. Moreover, the “Size (nm)” value in data set [2] (setting [7]) worked out at 79.3 nm. Further, the “i.m. Lipid/MC3 0.01 mpk, Luc, 6h” value with mice [5] is on record as 4.9.

For `CCCCCCCCCOC(=O)CCCCCCCN(CCO)CCCCCCC(=O)OCC(CCCCCCCC)CCCCCCCC` [Compound 143, Nonyl 8-((2-hydroxyethyl)(7-((2-octyldecyl)oxy)-7-oxoheptyl)amino)octanoate], the PDI in data set [2] stood at 0.19. In addition, in data set [2] (setting [7]), the “Size (nm)” value was 93.3 nm. In the data set on mice [3], this molecule showed an IL-6 of 6.245 and an IP-10 of 209.63. Moreover, in data set [4] (setting [8]), the “EE (%)” value is reported as 96.4%.

`CCCCCCCCCOC(=O)CCCCCCCN(CCCCCCCC(=O)OC(CCCCCCCC)CCCCCCCC)C(C)CO` (stereo not drawn) [Compound 157, Heptadecan-9-yl 8-((1-hydroxypropan-2-yl)(8-(nonyloxy)-8-oxooctyl)amino)octanoate]: the “AUC (p/s*h)” value in the data set with mice [6] was 2.481E+011 p/s*h. In addition, in data set [2], the PDI is given as 0.096. In data set [2] (setting [7]), the “Size (nm)” value came out at 69.6 nm. For the same molecule, the “EE (%)” value in data set [4] (setting [8]) is on record as 96.43%.

Turning to `CCCCCCCCCOC(=O)CCCCCCCN(CCCCCCCC(=O)OC(CCCCCCCC)CCCCCCCC)CCCN/C(=N/C#N)N(C)C` [Compound 168, Heptadecan-9-yl (Z)-8-((3-(2-cyano-3,3-dimethylguanidino)propyl)(8-(nonyloxy)-8-oxooctyl)amino)octanoate], in data set [2], the PDI worked out at 0.1. Further, the “Size (nm)” value in data set [2] (setting [7]) worked out at 80.7 nm. Moreover, the “EE (%)” value in data set [4] (setting [8]) was determined as 94.35%.

Take `CCCCCCCCCOC(=O)CCCCCCCN(CCCCCCCC(=O)OC(CCCCCCCC)CCCCCCCC)CCCN(C)S(C)(=O)=O` [Compound 173, Heptadecan-9-yl 8-((3-(N-methylmethylsulfonamido)propyl)(8-(nonyloxy)-8-oxooctyl)amino)octanoate]: the “i.m. Lipid/MC3 0.01 mpk, Luc, 6h” value in the data set on mice [5] is reported as 0.6.

(Values after patent US12404232B2, “Compounds and compositions for intracellular delivery of therapeutic agents” (ModernaTX, Inc., priority 2015, dated 2025).)
